# Assay results taken from PubChem BioAssay (NCI).
#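 Grown in 96-well plates, cells were treated for 48 hours with each compound at five concentrations. Insufficient inhibition: endpoint recorded as highest concentration tested. GI50: concentration for 50% inhibition of growth. At the TGI there is no net growth.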
# Legend:
# Experiment in all cases: inhibition of tumour cell growth, NCI panel, 48 h
# 786-0 renal = test system: 786-0 renal
# A498 renal = test system: A498 renal
# A549 NSCLC = test system: A549 NSCLC
# ACHN renal = test system: ACHN renal
# BT-549 breast = test system: BT-549 breast
# CAKI-1 renal = test system: CAKI-1 renal
# CCRF-CEM leukemia = test system: CCRF-CEM leukemia
# COLO 205 colon = test system: COLO 205 colon
# DU-145 prostate = test system: DU-145 prostate
# EKVX NSCLC = test system: EKVX NSCLC
# HCC-2998 colon = test system: HCC-2998 colon
# HCT-116 colon = test system: HCT-116 colon
# HCT-15 colon = test system: HCT-15 colon
# HL-60(TB) leukemia = test system: HL-60(TB) leukemia
# HOP-62 NSCLC = test system: HOP-62 NSCLC
# HOP-92 NSCLC = test system: HOP-92 NSCLC
# HS 578T breast = test system: HS 578T breast
# HT29 colon = test system: HT29 colon
# IGROV1 ovarian = test system: IGROV1 ovarian
# K-562 leukemia = test system: K-562 leukemia
# KM12 colon = test system: KM12 colon
# LOX IMVI melanoma = test system: LOX IMVI melanoma
# M14 melanoma = test system: M14 melanoma
# MALME-3M melanoma = test system: MALME-3M melanoma
# MCF7 breast = test system: MCF7 breast
# MDA-MB-231 breast = test system: MDA-MB-231 breast
# MDA-MB-435 = test system: MDA-MB-435
# MDA-MB-468 breast = test system: MDA-MB-468 breast
# MOLT-4 leukemia = test system: MOLT-4 leukemia
compound,measurement,setting,value
Cn1cc(-c2cc3nc(-c4cn(C)c5ncc(Br)cc45)cc(N)n3n2)c2cc(F)ccc21,GI50,786-0 renal,4.64 µM
same,TGI,786-0 renal,17 µM
same,GI50,A498 renal,13.5 µM
same,TGI,A498 renal,30.2 µM
same,GI50,A549 NSCLC,3.37 µM
same,TGI,A549 NSCLC,16.8 µM
same,GI50,ACHN renal,3.72 µM
same,TGI,ACHN renal,13.2 µM
same,GI50,BT-549 breast,10.9 µM
same,TGI,BT-549 breast,23.6 µM
same,GI50,CAKI-1 renal,8.11 µM
same,TGI,CAKI-1 renal,22.5 µM
same,GI50,CCRF-CEM leukemia,8.29 µM
same,TGI,CCRF-CEM leukemia,> 100 µM
same,GI50,COLO 205 colon,12.6 µM
same,TGI,COLO 205 colon,40.7 µM
same,GI50,DU-145 prostate,5.16 µM
same,TGI,DU-145 prostate,19.3 µM
same,GI50,EKVX NSCLC,11.4 µM
same,TGI,EKVX NSCLC,29.7 µM
same,GI50,HCC-2998 colon,7.19 µM
same,TGI,HCC-2998 colon,27.6 µM
same,GI50,HCT-116 colon,15 µM
same,TGI,HCT-116 colon,32.3 µM
same,GI50,HCT-15 colon,3.73 µM
same,TGI,HCT-15 colon,16.4 µM
same,GI50,HL-60(TB) leukemia,12.1 µM
same,TGI,HL-60(TB) leukemia,73.1 µM
same,GI50,HOP-62 NSCLC,7.8 µM
same,TGI,HOP-62 NSCLC,24.3 µM
same,GI50,HOP-92 NSCLC,11.3 µM
same,TGI,HOP-92 NSCLC,33.8 µM
same,GI50,HS 578T breast,10.7 µM
same,TGI,HS 578T breast,48.6 µM
same,GI50,HT29 colon,3.18 µM
same,TGI,HT29 colon,11.3 µM
same,GI50,IGROV1 ovarian,3.91 µM
same,TGI,IGROV1 ovarian,14.1 µM
same,GI50,K-562 leukemia,6 µM
same,TGI,K-562 leukemia,> 100 µM
same,GI50,KM12 colon,12.9 µM
same,TGI,KM12 colon,49 µM
same,GI50,LOX IMVI melanoma,1.91 µM
same,TGI,LOX IMVI melanoma,3.47 µM
same,GI50,M14 melanoma,4.05 µM
same,TGI,M14 melanoma,14.9 µM
same,GI50,MALME-3M melanoma,3.43 µM
same,TGI,MALME-3M melanoma,12.1 µM
same,GI50,MCF7 breast,3.6 µM
same,TGI,MCF7 breast,12.8 µM
same,GI50,MDA-MB-231 breast,2.9 µM
same,TGI,MDA-MB-231 breast,10 µM
same,GI50,MDA-MB-435,6.19 µM
same,TGI,MDA-MB-435,20.1 µM
same,GI50,MDA-MB-468 breast,1.95 µM
same,TGI,MDA-MB-468 breast,4.19 µM
same,GI50,MOLT-4 leukemia,5.98 µM
